“And” between values parts separate entries of the source, which are not always exact repeats. Identical values can stand only once.
Legend:
[1] = system: Fasn, Acaca, Lpl, Ucp1, Ppargc1a, Ppargc1b, Elovl3, Cox8b; experiment: qRT-PCR of lipid-metabolism-related genes (eWAT) and thermogenic genes (BAT); type: in vivo; details: db/db mice
Excerpt: Total RNA was isolated from 3T3-L1 cells and adipose tissue homogenates using Trizol reagent (Invitrogen, Carlsbad, CA, USA). RNA concentration and purity were examined at 260/280 nm using a nanodrop spectrophotometer (NanoDrop One, Thermo Fisher Scientific, USA). The total RNA was reverse transcribed to cDNA using the EasyScript All-in-One First-Strand cDNA Synthesis SuperMix for qPCR kit (TransGen Biotech, Beijing, China). The quantitative reverse transcription polymerase chain reaction was performed using TransStart Top Green qPCR SuperMix (TransGen Biotech, Beijing, China) and an Applied Biosystems 7500 RealTime PCR System (Life Technologies, USA). Relative expression levels were normalized to gapdh expression and quantified using the 2^-ΔΔCt method. The primers were synthesized by Shanghai Sangon Biotech, and the detailed primer sequences were shown in Supplementary Table 5 in the supplementary materials.

db/db mice [2] = experiment: HE staining of epididymal adipose tissue, adipocyte size; type: in vivo
Description: The adipose tissue was fixed overnight in 4% paraformaldehyde, then embedded in paraffin and cut into 5 µm thick slices. Tissue sections were stained with hematoxylin and eosin (H&E). For immunohistochemistry, sections were incubated with primary antibodies against F4/80 (1:100 dilution) diluted in the blocking solution at 4 °C overnight. The tissue sections were then incubated with the horseradish peroxidase (HRP)-conjugated secondary antibody at room temperature for 2 h. Finally, the sections were developed with diaminobenzidine (DAB) and counterstained with hematoxylin. Images were obtained under a microscope. To quantify the F4/80-positive macrophages, two random fields per sample were analyzed by Image J software. The IHC profiler plugin of ImageJ was used to calculate the F4/80 positive area.

db/db mice [3] = experiment: Insulin tolerance test (ITT), AUC and initial slope; type: in vivo; set-up: blood glucose AUC: unit not given here; details: BBR 150mg/kg; for blood glucose level: in mmol/L (unit assumed)
Description: Mice were fasted for 4 h for insulin resistance test and intraperitoneally injected with 1 unit/kg of insulin. Blood glucose levels were measured from the tail vein blood at 0, 15, 30, 45, 60, 90, and 120 min after injection. Plasma insulin levels were measured using an ultrasensitive mouse insulin ELISA kit (Nanjing Jiancheng Bioengineering Institute, Nanjing, China).

db/db mice [4] = experiment: Weekly fasting glucose levels of db/db mice; type: in vivo; details: for Weekly fasting glucose levels of db/db mice (Figure 5a): BBR 150mg/kg, individual mice 1-10, in mmol/L
Description: The lean wild type control and the db/db control mice were given equal vehicle volume (0.5% CMC-Na solution). All mice were monitored for food intake, body weight, and fasting blood glucose during the 35-day trial. Glucose tolerance test (GTT) and insulin resistance test (ITT) were performed at 4 and 5 weeks of treatment, respectively. Metabolic analysis was performed at 5 weeks of treatment. At the end of the study, blood samples were taken through the retroorbital venous sinus of mice, fat depots (brown fat, inguinal subcutaneous fat, epididymal fat, perirenal fat and mesenteric fat depot) were dissected, weighed, and immediately frozen in liquid nitrogen and stored at −80 °C until required. Weight of fat depots are expressed in percentage (fat depots weight /bodyweight * 100%).

TNF-α and IL-6 = experiment: Serum levels of TNF-α and IL-6 (ELISA); type: in vivo, mice; set-up: TNFα / IL-6: unit not given here
Description: The serum was collected by centrifugation at 3000 × g at 4 °C for 15 min and stored at −80 °C until analysis. TG, TC, LDL-C, HDL-C, and FFA were routinely tested on a Chemray 240 automatic biochemical analyzer (Chemray 240, Shenzhen, China). Serum levels of mouse adiponectin, interleukin6 (IL-6), tumor necrosis factor-α (TNF-α) were measured using commercial enzyme-linked immunosorbent assay (ELISA) kits (Nanjing Jiancheng Bioengineering Institute, Nanjing, China) and according to the manufacturer’s instructions. The levels of IL-6, TNF-α in 3T3-L1 adipocyte culture supernatant were also detected by ELISA.

[5] = In vitro dissolution studies: dynamic solubility in buffers and simulated biological fluids; type: physicochemical; set-up: BBR dissolved in CMC-Na (Figure S7a) / Ibu dissolved in CMC-Na (Figure S7b): unit not given here; details: mean; for solubility at 0.5 h / solubility at 1 h / solubility at 2 h / solubility at 24 h: 37 °C
Description: Solubilities were determined by adding excess sample to 30 mL different mediums, such as HCl solution, acetate buffer, phosphate buffer, SGF, FaSSIF and FeSSIF. The configuration of various buffer solutions is shown in Supplementary Table 2. After being shaken at 400 rpm at 37 °C for 0.5, 1, 2, and 24 h, 0.3 mL of suspension was sampled and centrifuged at 14,000 rpm for 8 min to isolate mother liquor, and then analyzed by HPLC after dilution. All samples were analyzed in triplicate.

[6] = FaSSIF-V1 (fasted state simulated intestinal fluid), thermodynamic from solid, FaSSIF-V1 (pH 6.5)
[7] = FaSSIF-V1 (fasted state simulated intestinal fluid), FaSSIF-V1 (pH 6.5)
[8] = FeSSIF-V1 (fed state simulated intestinal fluid), thermodynamic from solid, FeSSIF-V1 (pH 5.0)
[9] = SGF (simulated gastric fluid), simulated gastric fluid, thermodynamic from solid, SGF (pH 2.0)
[10] = simulated gastric fluid, thermodynamic from solid, HCl solution (pH 1.0)

With COc1ccc2cc3[n+](cc2c1OC)CCc1cc2c(cc1-3)OCO2 [BBR, Berberine chloride dihydrate] the “Expression of brown fat enrichment genes (Ucp1, Ppargc1a, Ppargc1b, Elovl3, Cox8b) in BAT” value [1] was “elevated express”, the “Expression of lipogenic genes (Fasn, Acaca, Lpl) in eWAT” value ([1]; vs vehicle control) was “downregulation of lipogenic genes” and the “Cell diameter (adipocyte size of eWAT)” value (db/db mice [2]; 150 mg/kg, individual cells) was 112.956 µm and 111.168 µm and 109.684 µm and 107.318 µm and 103.404 µm and 102.799 µm and 102.56 µm and 100.649 µm and 97.9486 µm and 97.2359 µm and 94.5814 µm and 93.4958 µm and 92.5409 µm and 90.4031 µm and 87.905 µm and 126.009 µm and 123.446 µm and 119.401 µm and 113.9 µm and 113.401 µm. For the same compound, the “Size of adipocytes in eWAT compared with vehicle” value (db/db mice [2]; BJ 75 and 150 mg/kg, BBR 150 mg/kg, Ibu 150 mg/kg) was “significantly reduced”, the blood glucose level (db/db mice [3]; individual mice, time column 1 of 7 (time not printed)) was 19.2 and 16.4 and 9.2 and 15.3 and 9.5 and 19.6 and 19.0 and 21.8 and 10.2 and the blood glucose level (db/db mice [3]; individual mice, time column 2 of 7 (time not given)) was 18.1 and 16.0 and 9.1 and 15.7 and 11.1 and 18.6 and 18.3 and 22.5 and 13.5. The blood glucose level (db/db mice [3]; individual mice, time column 3 of 7 (time not given)) was 14.4 and 12.6 and 7.4 and 12.2 and 7.9 and 18.7 and 13.6 and 19.0 and 15.5 and 10.0, the blood glucose level (db/db mice [3]; individual mice, time column 4 of 7 (time not given)) was 12.3 and 9.3 and 4.0 and 8.5 and 6.8 and 15.1 and 11.8 and 17.7 and 13.7 and 6.9 and the blood glucose level (db/db mice [3]; individual mice, time column 5 of 7 (time not given)) was 10.3 and 9.1 and 4.5 and 8.8 and 7.2 and 13.0 and 10.2 and 17.4 and 10.8 and 7.5. The blood glucose level (db/db mice [3]; individual mice, time column 6 of 7 (time not given)) was 11.7 and 9.8 and 3.9 and 8.9 and 7.6 and 15.8 and 11.2 and 20.0 and 12.2 and 8.2, the blood glucose level (db/db mice [3]; individual mice, time column 7 of 7 (time not printed)) was 11.0 and 10.0 and 4.1 and 9.3 and 6.7 and 17.4 and 10.3 and 19.0 and 11.5 and 7.3 and the “blood glucose AUC” value (db/db mice [3]; Figure 5f, individual mice) was 948.75 and 1960.5 and 1518 and 2328 and 1638 and 1056.75 and 1563.75 and 1340.25 and 656.25 and 1265.25. The “Initial Slope” value (db/db mice [3]; db/db mice, individual animals (Figure S10a)) was -0.0533 mmol/L/min and -0.03 mmol/L/min and -0.18 mmol/L/min and -0.0933 mmol/L/min and -0.1367 mmol/L/min and -0.0067 mmol/L/min and -0.16 mmol/L/min and -0.1267 mmol/L/min and -0.06 mmol/L/min and -0.1033 mmol/L/min, the “Weekly fasting glucose levels of db/db mice (Figure 5a)” value (from here on “Weekly fasting glucose levels”) (db/db mice [4]; 1st of 6 weekly columns (time not given)) was 17.4 and 11.5 and 21.8 and 12.0 and 11.7 and 15.7 and 14.9 and 17.1 and the “Weekly fasting glucose levels” value (db/db mice [4]; 2nd of 6 weekly columns (time not given)) was 26.2 and 16.0 and 21.2 and 18.4 and 15.0 and 21.3 and 21.6 and 19.3 and 16.9. The “Weekly fasting glucose levels” value (db/db mice [4]; 3rd of 6 weekly columns (time not given)) was 23.6 and 18.7 and 19.5 and 20.6 and 21.5 and 23.7 and 13.1 and 20.7 and 20.5, the “Weekly fasting glucose levels” value (db/db mice [4]; 4th of 6 weekly (time not given)) was 19.5 and 14.4 and 15.7 and 19.0 and 17.0 and 19.2 and 9.3 and 10.1 and 18.3 and 13.0 and the “Weekly fasting glucose levels” value (db/db mice [4]; 5th of 6 weekly (time not given)) was 18.5 and 10.1 and 10.6 and 12.8 and 13.2 and 9.4 and 10.5 and 8.4 and 10.7 and 13.3. For the same compound, the “Weekly fasting glucose levels” value (db/db mice [4]; 6th of 6 weekly (time not given)) was 15.5 and 9.3 and 11.4 and 15.8 and 10.5 and 10.2 and 10.0 and 9.8 and 13.5, the “Fasting blood glucose level at the end of the treatment” value (db/db mice [4]; db/db mice, 150 mg/kg, vehicle rose from 14.4 ± 3.4 to 23.9 ± 3.4) was 11.6 ± 2.4 mmol/L and the “Blood (serum) glucose levels compared with vehicle” value (db/db mice [4]; db/db mice, BJ 75 and 150 mg/kg, BBR 150 mg/kg, Ibu 150 mg/kg) was “slowed the increase in glucose levels”. For the same compound, the IL-6 (TNF-α and IL-6; Figure 5i, BBR 150mg/kg, individual values) was 24.23 and 30 and 30.18 and 32.12 and 23.56 and 26.45, the TNFα (TNF-α and IL-6; Figure 5h, BBR 150mg/kg, individual values) was 161.97 and 148.57 and 185.98 and 167.03 and 204.23 and 186.47 and the “Serum TNF-α and IL-6 levels” value (TNF-α and IL-6; db/db mice, 5 weeks of treatment) was “significantly lower than those in the vehicle-treated group”. For the same compound, the solubility at 0.5 h ([5]; Acetate buffer (pH 4.5)) was 2080 µg/mL, the solubility at 1 h ([5]; Acetate buffer (pH 4.5)) was 2070 µg/mL and the solubility at 2 h ([5]; Acetate buffer (pH 4.5)) was 1540 µg/mL. For the same compound, the solubility at 24 h ([5]; Acetate buffer (pH 4.5)) was 1540 µg/mL, the “BBR dissolved in CMC-Na (Figure S7a)” value ([5]; time 0.5) was 1.991 and the “BBR dissolved in CMC-Na (Figure S7a)” value ([5]; time 1) was 2.188. The “BBR dissolved in CMC-Na (Figure S7a)” value ([5]; time 2) was 2.102, the “BBR dissolved in CMC-Na (Figure S7a)” value ([5]; time 24) was 2.4551 and the solubility at 0.5 h [5, 6] was 151 µg/mL. The solubility at 24 h [5, 6] was 64.1 µg/mL, the solubility at 1 h [5, 7] was 126 µg/mL and the solubility at 2 h [5, 7] was 87.2 µg/mL. It also gave a solubility at 0.5 h [5, 8] of 137 µg/mL, a solubility at 2 h [5, 8] of 73.3 µg/mL and a solubility at 24 h [5, 8] of 63.1 µg/mL. For the same compound, the solubility at 1 h ([5]; FeSSIF-V1 (fed state simulated intestinal fluid), FeSSIF-V1 (pH 5.0)) was 107 µg/mL, the solubility at 2 h ([5]; HCl solution (pH 1.0)) was 106 µg/mL and the solubility at 24 h ([5]; HCl solution (pH 1.0)) was 81.1 µg/mL. For the same compound, the solubility at 0.5 h ([5]; Phosphate buffer (pH 6.8)) was 2290 µg/mL, the solubility at 1 h ([5]; Phosphate buffer (pH 6.8)) was 2380 µg/mL and the solubility at 2 h ([5]; Phosphate buffer (pH 6.8)) was 1790 µg/mL. For the same compound, the solubility at 24 h ([5]; Phosphate buffer (pH 6.8)) was 1950 µg/mL, the solubility at 0.5 h [5, 9] was 172 µg/mL and the solubility at 1 h [5, 9] was 175 µg/mL. The solubility at 2 h [5, 9] was 140 µg/mL, the solubility at 24 h ([5]; SGF (simulated gastric fluid), SGF (pH 2.0)) was 110 µg/mL and the solubility at 0.5 h [5, 10] was 137 µg/mL. The solubility at 1 h [5, 10] was 146 µg/mL.

Source: PMC9374667 (Communications Biology, 2022)
